Values after ≈ are worked out from the molar mass of the structure shown. Values joined by “and” are separate entries in the source; they are usually repeats but may differ in a detail not shown here. Equal entries are not always repeated. Where two headings read alike, the source gives them in different places.
Experiments:
Type in all cases: physicochemical
[1] = Dynamic vapor sorption (DVS) with XRPD analysis post-DVS; settings: for Solid form by XRPD analysis post-DVS: after DVS; for DVS weight change / Hygroscopicity by DVS: between 0-90% RH
Text: Techniques for characterizing crystal and amorphous forms include but are not limited to differential scanning calorimetry (DSC), thermal gravimetric analysis (TGA), dynamic vapor sorption (DVS), X-ray powder diffractometry (XRPD), single crystal X-ray diffraction (SCXRD), proton nuclear magnetic resonance (^1H-NMR), Fourier transform infrared spectroscopy (FTIR Spectroscopy), and Optical Microscopy.

[2] = Solubility studies in pH buffer at 37° C. with HPLC analysis; settings: for solubility at 1 h / solubility at 4 h: pH buffer, 37 °C, thermodynamic from solid; for Observation-1 hr / Observation-4 hr: ~6 mg in 5 mL
Description: Solubility studies are conducted on the pracinostat diHCl co-crystal with fumaric acid according to the following method:
1. Weigh out ˜6 mg pracinostat diHCl co-crystal with fumaric acid in 5 mL pH buffer;
2. Stir samples at 37° C.;
3. After 1 hour, test and record pH, then remove a 2 mL sample for HPLC analysis;
4. Adjust pH of remaining solution using 0.2M NaOH or HCl, if necessary;
5. After 4 hours, test and record pH, then remove a 2 mL sample for HPLC analysis.
The solubility data are collected using an Agilent 1100 Series HPLC system and analyzed using Chemstation software. The method details are listed below.

[3] = Solubility in solvent mixture of isopropyl alcohol and water; settings: organic solvent or mixture, isopropyl alcohol:water about 8:1 (v/v), about 58° C.
Text: In one embodiment, the volume ratio of isopropyl alcohol to water in the solvent mixture is about 7-9:1; particularly about 8:1. In one embodiment, the solution of pracinostat diHCl is a saturated solution. […] Another embodiment optionally further comprises filtering the combination of pracinostat diHCl and solvent mixture to ensure no particles remain, i.e., to obtain the solution of pracinostat diHCl. In a particular embodiment, the weight to volume ratio of pracinostat diHCl to the solvent mixture is about 84-104 mg:1 mL; particularly about 94 mg:1 mL, wherein if the pracinostat diHCl is not fully dissolved in the solvent mixture, the combination of pracinostat diHCl and solvent mixture is filtered to obtain the solution of pracinostat diHCl. In one embodiment, the weight to volume ratio of Eudragit RS PO to the solution of pracinostat diHCl is about 3.75-6.25 mg:1 mL. In one embodiment, the weight ratio of Eudragit RS PO to pracinostat diHCl is about 1 mg: 14-16 mg. Another embodiment further comprises applying heating during the combining or using a solvent mixture that is heated. In another embodiment, the heating occurs at about 50-70° C. (particularly about 60° C.), or the solvent mixture is heated to about 50-70° C. (particularly about 60° C.). In one embodiment, the cooling is to about 0-10° C., particularly to about 5° C. […]

[4] = Stability studies at 40° C./75% RH, evidenced by XRPD; settings: open vial covered with Kimwipes and sealed vial
[5] = starting pH 1.75 buffer, single experiments
[6] = starting pH 7.26 buffer, single experiments

Q: Which results are given for `CCCCc1nc2cc(/C=C/C(=O)NO)ccc2n1CCN(CC)CC` [pracinostat diHCl co-crystal with glycine]?
A: Solid form by XRPD analysis post-DVS [1]: remains unchanged; DVS weight change [1]: ~8.0%; Hygroscopicity by DVS [1]: hygroscopic

Q: Which solubility at 1 h ([2]; pH 1.75, simulated gastric fluid, starting pH 1.75 buffer, single experiments, read-out: Solubility (mg/mL) 1 hr) does the source give for `CCCCc1nc2cc(/C=C/C(=O)NO)ccc2n1CCN(CC)CC` here?
A: > 1.07 mg/mL

Q: What about the solubility at 4 h ([2]; pH 1.75, simulated gastric fluid, starting pH 1.75 buffer, single experiments, read-out: Solubility (mg/mL) 4 hr) of the same compound?
A: > 1.08 mg/mL

Q: What about the solubility at 1 h ([2]; pH 7.26, aqueous buffer, starting pH 7.26 buffer, average of Exp. 4-6, read-out: Avg. Solubility ± STD (mg/mL) 1 hr) of the same compound?
A: 0.16 ± 0.01 mg/mL (≈ 446 µM)

Q: What about the solubility at 1 h ([2]; pH 7.26, aqueous buffer, starting pH 7.26 buffer, single experiments, read-out: Solubility (mg/mL) 1 hr) of the same compound?
A: 0.14 mg/mL (≈ 391 µM)

Q: And the solubility at 4 h ([2]; pH 7.26, aqueous buffer, starting pH 7.26 buffer, average of Exp. 4-6, read-out: Avg. Solubility ± STD (mg/mL) 4 hr)?
A: 0.1 ± 0.02 mg/mL (≈ 279 µM)

Q: What about the solubility at 4 h ([2]; pH 7.26, aqueous buffer, starting pH 7.26 buffer, single experiments, read-out: Solubility (mg/mL) 4 hr) of the same compound?
A: 0.08 mg/mL (≈ 223 µM)

Q: Which solubility [3] does the source give for `CCCCc1nc2cc(/C=C/C(=O)NO)ccc2n1CCN(CC)CC` [pracinostat diHCl, (E)-3-(2-Butyl-1-(2-(diethylamino)ethyl)-1H-benzo[d]imidazol-5-yl)-N-hydroxyacrylamide] here?
A: ~82600 µg/mL

Q: With `CCCCc1nc2cc(/C=C/C(=O)NO)ccc2n1CCN(CC)CC` [pracinostat diHCl co-crystal with fumaric acid] as the compound, how does the “Time stable (solid form, by XRPD)” value [4] read?
A: at least 9 months

Q: And the “Solid form by XRPD analysis post-DVS” value [1]?
A: remains unchanged

Q: And the DVS weight change [1]?
A: ~1.7%

Q: And the “Hygroscopicity by DVS” value [1]?
A: slightly hygroscopic

Q: What about the “Solubility (mg/mL) 1 hr” value [2, 5] of the same compound?
A: >0.75 mg/mL and >0.98 mg/mL

Q: And the “Solubility (mg/mL) 4 hr” value [2, 5]?
A: >0.81 mg/mL and >0.98 mg/mL

Q: And the Observation-1 hr ([2]; starting pH 1.75 buffer)?
A: Clear

Q: What about the Observation-4 hr ([2]; starting pH 1.75 buffer) of the same compound?
A: Clear

Q: What about the “Solubility (mg/mL) 1 hr” value [2, 6] of the same compound?
A: 0.16 mg/mL and 0.17 mg/mL

Q: And the “Solubility (mg/mL) 4 hr” value [2, 6]?
A: 0.12 mg/mL and 0.09 mg/mL

Q: And the Observation-1 hr ([2]; starting pH 7.26 buffer)?
A: Cloudy

Q: What about the Observation-4 hr ([2]; starting pH 7.26 buffer) of the same compound?
A: Cloudy

Q: Which “Solid form by XRPD analysis post-DVS” value [1] does the source give for `CCCCc1nc2cc(/C=C/C(=O)NO)ccc2n1CCN(CC)CC` [pracinostat diHCl co-crystal with L-arginine] here?
A: not stable

Q: And the DVS weight change [1]?
A: ~12%

Q: And the “Hygroscopicity by DVS” value [1]?
A: hygroscopic

From patent US20230159468A1, “NOVEL FORMS OF PRACINOSTAT DIHYDROCHLORIDE” (Macfarlan Smith Limited, priority 2020, published 2023)
